From patent EP1042293B9, “SUBSTITUTED PYRIDINE AND PYRIDAZINE COMPOUNDS AND THEIR PHARMACEUTICAL USE” (AMGEN INC., priority 1997, dated 1999) come the findings set out here.

Where only a bound is given, the exact number is not on record here.

The test deals with TNF production by monocytes activated with bacterial lipopolysaccharide (LPS). The test is described as follows: Lipopolysaccharide-activated monocyte TNF production assay. Type of test: cell-based. The note with it: Homo sapiens, 4 h, adherent PBMC-derived monocytes, LPS from E. coli, TNF in supernatant by ELISA, read-out: IC50 values in the monocyte assay (LPS induced TNF release). The procedure: Test compounds were evaluated in vitro for the ability to inhibit the production of TNF by monocytes activated with bacterial lipopolysaccharide (LPS). Fresh residual source leukocytes (a byproduct of plateletpheresis) were obtained from a local blood bank, and peripheral blood mononuclear cells (PBMCs) were isolated by density gradient centrifugation on Ficol-Paque Plus (Pharmacia). PBMCs were suspended at […] /ml in DMEM supplemented to contain 2% FCS, 10 mM, 0.3 mg/ml glutamate, 100 U/ml penicillin G and […] streptomycin sulfate (complete media). Cells were plated into Falcon flat bottom, 96 well culture plates (200 µl/well) and cultured overnight at 37°C and 6% CO2. Non-adherent cells were removed by washing with 200 µl/well of fresh medium. Wells containing adherent cells (~70% monocytes) were replenished with 100 µl of fresh medium.
Test compounds were dissolved in […]. Compound stock solutions were prepared to an initial concentration of […]. Stocks were diluted initially to 20 - 200 µM in complete media. Nine twofold serial dilutions of each compound were then prepared in complete medium.
One hundred microliters of each test compound dilution were added to microtiter wells containing adherent monocytes and 100 µl complete medium. Monocytes were cultured with test compounds for 60 min at which time 25 µl of complete medium containing 30 ng/ml lipopolysaccharide from E. coli K532 were added to each well. Cells were cultured an additional 4 hrs. Culture supernatants were then removed and TNF presence in the supernatants was quantified using an ELISA.
Flat bottom, 96 well Corning High Binding ELISA plates were coated overnight (4°C) with 150 µL/well of 3 µg/ml murine anti-human TNF-α MAb (R&D Systems #MAB210). […]
Standard curve data were fit to a second order polynomial and unknown TNF-α concentrations determined from their OD by solving this equation for concentration. […]
A general note: ELISA stands for enzyme-linked immunosorbent assay.
For the compound `Cc1cccc(-c2cc(OC[C@@H](N)Cc3ccccc3)ncc2-c2ccncc2)c1` [Example 14, 2-((S)-2-amino-3-phenylpropoxy)-4-(3-methylphenyl)-5-(4-pyridyl)pyridine], the IC50 was at most 20 µM.
For `Cc1cccc(-c2cc(OCCCc3ccccc3)ncc2-c2ccncc2)c1` [Example 18, 2-(3-phenylpropoxy)-4-(3-methylphenyl)-5-(4-pyridyl)pyridine], the half-inhibitory concentration (IC50) was at most 20 µM.
For `Cc1cccc(-c2cc(=O)n(CCCc3ccccc3)cc2-c2ccncc2)c1` [Example 19, 1-(3-phenylpropyl)-4-(3-methylphenyl)-5-(4-pyridyl)-1H-pyrid-2-one] the value was at most 20 µM.

By IC50 is commonly meant the concentration at which inhibition is half-maximal.
